{"source": "paper PMC8623647", "about": "(Pharmaceuticals, 2021)", "key": {"[1]": {"assay": "BBB permeation by parallel artificial membrane permeability assay (PAMPA)", "format": "in vitro ADME", "conditions": "for Prediction (BBB permeation): PAMPA-BBB class from Pe", "from_the_text": "The CNS bioavailability of the lead candidates was further ascertained by PAMPA method [31]."}, "[2]": {"set-up": "method as in PMID 12667689", "conditions": "PAMPA-BBB ref 31; cited from earlier work"}, "[3]": {"tested_on": "MAO-B", "set-up": "method as in PMID 30915862", "conditions": "study of Shalaby et al. ref 25; cited from earlier work"}, "[4]": {"target": "T1, MAO-B (Homo sapiens, UniProt P27338)", "T1 sequence (P27338 1-520)": "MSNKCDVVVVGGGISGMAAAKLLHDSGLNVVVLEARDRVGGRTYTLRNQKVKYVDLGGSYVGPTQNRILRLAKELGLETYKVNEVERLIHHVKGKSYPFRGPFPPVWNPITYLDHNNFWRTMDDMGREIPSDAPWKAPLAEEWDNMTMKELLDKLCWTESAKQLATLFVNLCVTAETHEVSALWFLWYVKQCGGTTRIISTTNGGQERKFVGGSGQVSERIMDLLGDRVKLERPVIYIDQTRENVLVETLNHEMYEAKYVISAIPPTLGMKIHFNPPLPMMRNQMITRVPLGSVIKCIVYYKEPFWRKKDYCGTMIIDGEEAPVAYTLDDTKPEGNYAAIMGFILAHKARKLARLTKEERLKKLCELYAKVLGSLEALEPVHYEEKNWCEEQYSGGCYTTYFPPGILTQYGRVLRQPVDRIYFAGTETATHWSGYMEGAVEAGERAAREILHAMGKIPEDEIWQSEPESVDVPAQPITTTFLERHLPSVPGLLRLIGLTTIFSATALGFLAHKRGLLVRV", "assay": "Kinetics study of MAO-B inhibition (Lineweaver-Burk and secondary plots)", "format": "biochemical", "experimental": "Kinetic studies on MAO-B inhibitions were performed on TM1 and TM8."}, "[5]": {"target": "T1, MAO-B", "assay": "Reversibility of MAO-B inhibition by dialysis", "format": "biochemical", "experimental": "The reversibilities of MAO-B inhibitions by TM1 and TM8 were assessed by dialysis. […] Reversibility patterns were determined by comparing the activities of dialyzed (AD) and undialyzed (AU) samples."}, "[6]": {"assay": "Cytotoxicity by MTT assay", "format": "cell-based, African Green Monkey", "conditions": "African green monkey, Vero cells (kidney); Vero cells treated at effective concentrations; read-out: Cells remaining viable", "experimental": "(§1) African Green Monkey kidney cells (VERO cells) were used to evaluate the cytotoxic effects of TM1 and TM8. Cells were incubated with different doses (1 µg/mL to 500 µg/mL) of the two compounds for 48 h, and relative cell viabilities were determined by MTT assay.\n(§2) The cytotoxicities and ROS quenching abilities of the two lead compounds (TM1 and TM8) were evaluated as previously described.\n(§3) Figure 4 Effect of TM1 on Vero cell viability. (a) cell viability treated with TM1; (b) dose-response curve; (c) phase contrast microscope images of Vero cells treated with different concentrations of TM1. Cells were treated with TM1 for 48 h and cell viabilities were assessed by MTT assay as described in Section 4.\n(§4) Figure 5 Effect of TM8 on Vero cell viability. (a) cell viability treated with TM8; (b) dose-response curve; (c) phase contrast microscope images of Vero cells treated with different concentrations of TM8. Cells were treated with TM8 for 48 h and cell viabilities were assessed by MTT assay as described in Section 4."}, "[7]": {"tested_on": "Vero cells", "assay": "Cytotoxicity by MTT assay", "format": "cell-based, African Green Monkey", "conditions": "48 h, MTT assay; for IC50: Chlorocebus sabaeus, Vero, read-out: IC50 for Vero cell viability; for Concentrations resulting in high viability (>90%): Vero cells", "experimental": "as §1, §2, §3, §4"}, "[8]": {"tested_on": "Vero cells", "assay": "ROS assay (H2O2-induced ROS levels)", "format": "cell-based, African Green Monkey", "conditions": "compound at its IC50 value, exogenous H2O2", "experimental": "ROS increase vulnerability to neuronal damage by causing oxidative damage in the brain during neurodegenerative diseases.\nas §2\nFigure 6 Effects of TM1 (a) and TM8 (b) on H2O2-induced ROS levels. Vero cells (1 × 10^6 cells/mL) were pre-incubated with 100 μg/mL of 30% H2O2 and ROS production was evaluated immediately as described in Section 4."}, "[9]": {"target": "T2, recombinant human MAO-A (Homo sapiens, UniProt P21397)", "T2 sequence (P21397 1-527)": "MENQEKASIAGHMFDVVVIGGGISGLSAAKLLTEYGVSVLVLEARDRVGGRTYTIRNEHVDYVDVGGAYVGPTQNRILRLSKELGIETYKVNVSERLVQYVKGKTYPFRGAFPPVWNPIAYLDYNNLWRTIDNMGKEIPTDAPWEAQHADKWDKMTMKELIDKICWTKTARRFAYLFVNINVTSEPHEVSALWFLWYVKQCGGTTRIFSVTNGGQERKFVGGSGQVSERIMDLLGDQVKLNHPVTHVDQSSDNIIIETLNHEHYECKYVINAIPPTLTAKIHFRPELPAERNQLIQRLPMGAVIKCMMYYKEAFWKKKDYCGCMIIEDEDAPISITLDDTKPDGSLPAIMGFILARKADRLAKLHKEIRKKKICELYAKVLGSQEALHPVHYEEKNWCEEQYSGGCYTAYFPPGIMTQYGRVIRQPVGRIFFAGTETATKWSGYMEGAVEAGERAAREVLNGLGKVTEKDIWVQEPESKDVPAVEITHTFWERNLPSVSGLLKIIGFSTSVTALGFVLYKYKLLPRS", "assay": "MAO-A enzyme inhibition (kynuramine substrate, 316 nm)", "method": "(§5) MAO activity assays were performed using recombinant human MAO-A or MAO-B.\n(§6) IC50 values were determined by measuring residual enzyme activities."}, "[10]": {"target": "T1, MAO-B", "assay": "MAO-B enzyme inhibition (benzylamine substrate, 250 nm)", "method": "as §5, §6"}}, "note": "Several values for one entry are separate records, joined by “and”; a condition that tells them apart may be missing. Identical values can stand only once. Entries after “also recorded” stand apart in the source; their conditions may differ. Like-named read-outs stand apart in the source and are kept apart here.", "data": [{"smiles": "CN1C(C(=O)Nc2ccccn2)=C(O)c2ccccc2S1(=O)=O", "note": "[Piroxicam, reference compound]", "values": [{"measurement": "Experimental Pe", "setting": "[1]; PAMPA-BBB", "result": "2.44 ± 0.26 ×10^−6 cm·s^−1"}, {"measurement": "Prediction (BBB permeation)", "setting": "[1]", "result": "CNS± (CNS± (BBB permeation uncertain): Pe (10^−6 cm·s^−1) from 2.00 to 4.00)"}, {"measurement": "Bibliography Pe", "setting": "[2]", "result": 2.5, "unit": "×10⁻⁶ cm/s"}]}, {"smiles": "NCCc1ccc(O)c(O)c1", "note": "[Dopamine, reference compound]", "values": [{"measurement": "Prediction (BBB permeation)", "setting": "[1]", "result": "CNS− (CNS− (low BBB permeation predicted): Pe (10^−6 cm·s^−1) < 2.00)"}, {"measurement": "Bibliography Pe", "setting": "[2]", "result": 0.2, "unit": "×10⁻⁶ cm/s"}]}, {"smiles": "CSc1ccc(C(=O)/C=C/c2cccc(Br)c2)cc1", "note": "[(E)-3-(3-bromophenyl)-1-(4-(methylthio)phenyl)prop-2-en-1-one]", "values": [{"measurement": "IC50", "setting": "[3]", "result": "0.19 ± 0.01", "unit": "µM"}]}, {"smiles": "CSc1ccc(C(=O)/C=C/c2ccccc2)cc1", "note": "[TM1]", "values": [{"measurement": "Inhibitor type for MAO-B", "setting": "[4]; Lineweaver-Burk plots", "result": "competitively inhibited MAO-B; also recorded: competitive"}, {"measurement": "Ki", "setting": "[4]; from secondary plots of slopes vs. inhibitor concentrations", "result": "0.011 ± 0.001", "unit": "µM"}, {"measurement": "MAO-B activity of dialyzed sample (AD)", "setting": "[5]; after dialysis, test compounds […], lazabemide 0.20 µM, pargyline 0.30 µM", "result": 68.1, "unit": "%"}, {"measurement": "Reversibility of MAO-B inhibition", "setting": "[5]; dialysis-based method", "result": "reversible MAO-B inhibitors"}, {"measurement": "MAO-B activity of undialyzed sample (AU)", "setting": "[5]; preincubated 30 min, test compounds […], lazabemide 0.20 µM, pargyline 0.30 µM", "result": 24.9, "unit": "%"}, {"measurement": "viability at 48 h", "setting": "[6]", "result": "> 90", "unit": "%"}, {"measurement": "IC50", "setting": "[7]; converted from µg/mL", "result": 948, "unit": "µM"}, {"measurement": "IC50", "setting": "[7]", "result": 242, "unit": "µg/mL"}, {"measurement": "Concentrations resulting in high viability (>90%)", "setting": "[7]", "result": "< 250", "unit": "µg/mL"}, {"measurement": "Concentrations resulting in high viability (>90%)", "setting": "[7]; converted from µg/mL", "result": "< 983.1", "unit": "µM"}, {"measurement": "Effect on H2O2-induced intracellular ROS levels", "setting": "[8]", "result": "significantly reduced reactive oxygen species (ROS) levels; also recorded: appreciably lower ROS levels; also recorded: mitigated H2O2-induced increases in ROS levels"}, {"measurement": "Blood-brain barrier permeability in words", "setting": "[1]; PAMPA", "result": "high blood-brain barrier permeabilities"}, {"measurement": "Prediction (BBB permeation)", "setting": "[1]", "result": "CNS+ (CNS+ (high BBB permeation predicted): Pe (10^−6 cm·s^−1) > 4.00)"}, {"measurement": "Papp", "setting": "[1]; PAMPA-BBB, read-out: Experimental Pe", "result": "15.5 ± 0.33", "unit": "×10⁻⁶ cm/s"}, {"measurement": "IC50", "setting": "[9]", "result": "13.8 ± 0.05", "unit": "µM"}, {"measurement": "remaining activity at 10 µM", "setting": "[9]; read-out: Residual Activity at 10 µM (%) MAO-A", "result": "62.6 ± 9.7", "unit": "%"}, {"measurement": "IC50", "setting": "[10]", "result": "0.017 ± 0.003", "unit": "µM"}, {"measurement": "SI (hMAO-B selectivity index)", "setting": "[10]; IC50(hMAO-A) divided by IC50(hMAO-B)", "result": "812 and 811.8"}, {"measurement": "Times more potent than pargyline (MAO-B)", "setting": "[10]; ratio of MAO-B IC50 values", "result": 1.6, "unit": "times"}, {"measurement": "Times more potent than the reference drug lazabemide (MAO-B)", "setting": "[10]; ratio of MAO-B IC50 values", "result": 3.7, "unit": "times"}, {"measurement": "remaining activity at 10 µM", "setting": "[10]; read-out: Residual Activity at 10 µM (%) MAO-B", "result": "13.2 ± 0.7", "unit": "%"}]}]}
